Measured values published in patent US11400106B2, “Methods for inhibiting microbe growth” (priority 2018, dated 2022).
Like-named read-outs stand apart in the source and are kept apart here.

What was measured:
E. coli = assay: microbe, parasite or virus in culture; type: cell-based, Escherichia coli; conditions: for MIC: Escherichia coli; for Fold, E. coli: fold shift in MIC
Procedure: (§1) In the following experiments, bacterial cells were cultured in 96-well microtiter plates in cation-adjusted Mueller-Hinton Broth (MHB) for 18 h at 37° C. The main strains used were E. coli (K-12 BW25113) (placed in stationary incubator) and S. aureus (Newman Strain) (incubated at 250 r.p.m). Knockout strains (ΔtolcC and ΔychM) were used from the Keio knockout collection (Baba et al., Construction of Escherichia coli K-12 in-frame, single-gene knockout mutants: the Keio collection. Mol Syst Biol 2, 2006 0008, doi:10.1038/msb4100050 (2006)). For MIC determination and checkerboard analyses, Clinical & Laboratory Standards Institute (CLSI) protocol was used. […] DiSC3 loading of S. aureus cells was performed as previously described (Farha et al., Collapsing the proton motive force to identify synergistic combinations against Staphylococcus aureus. Chemistry & biology 20, 1168-1178, doi:10.1016/j.chembiol.2013.07.006 (2013)). CCCP concentration of 20 μM was used. pH adjustments were made by addition of HCl or NaOH. INT assay and ATP bioluminescence assays were performed as previously described (Farha et al., Collapsing the proton motive force to identify synergistic combinations against Staphylococcus aureus. Chemistry & biology 20, 1168-1178, doi:10.1016/j.chembiol.2013.07.006 (2013)). For chemical-genomic studies, the Keio library was grown overnight in cation-adjusted MHB broth, in 384-well plates. From these, treatment plates (25 mM sodium bicarbonate, or a sterile water control) were inoculated and grown for 15 hours at 37° C., in a stationary incubator. Data was normalized according to Mangat et al (Mangat et al., Rank ordering plate data facilitates data visualization and normalization in high-throughput screening. J Biomol Screen 19, 1314-1320, doi:10.1177/1087057114534298 (2014)), with gene products and GO terms mined from EcoCyc. The GFP promoter library (Keseler et al., EcoCyc: fusing model organism databases with systems biology. Nucleic Acids Res 41, D605-612, doi:10.1093/nar/gks1027 (2013)) was grown for 18 hours at ambient temperature with the same inoculation strategy as with the Keio collection. The analysis pipeline of Zaslaver et al (Zaslaver et al., A comprehensive library of fluorescent transcriptional reporters for Escherichia coli. Nat Methods 3, 623-628, doi:10.1038/nmeth895 (2006)) was used to generate maps of promoter activity, from which lists of promoters with increased or decreased activity were compiled.
(§2) Fold enhancement in MICs in the media supplemented with sodium bicarbonate is represented by a positive fold, whereas suppression of activity is represented by a negative fold.
(§3) The effect of sodium bicarbonate on the activity of additional antibacterial agents was investigated. Clinical isolates of various bacteria were obtained from the ATCC and the IHMA.
(§4) The effect of sodium bicarbonate on the activity of cationic antiseptic agents was investigated. Clinical isolates of various bacteria were obtained from the ATCC and the IHMA.

S. aureus = assay: microbe, parasite or virus in culture; conditions: for MIC: Staphylococcus aureus, 18 h, read-out: MIC, S. aureus, MHB−; for Fold, S. aureus: fold shift in MIC
Procedure: as §1, §2, §3, §4

[1] = 18 h, antibiotic agents, MHB in the absence of sodium bicarbonate, read-out: MIC, E. coli, MHB−
[2] = 18 h, MHB in the absence of sodium bicarbonate, read-out: MIC, E. coli, MHB−
[3] = antiseptic agents, MHB in the absence of sodium bicarbonate
[4] = antiseptic agents, MHB in the presence of 25 mM sodium bicarbonate
[5] = antibiotic agents, MHB in the absence of sodium bicarbonate
[6] = antibiotic agents, MHB− vs MHB+

Row | Structure (SMILES) | MIC, E. coli, MHB+ (E. coli) | MIC (E. coli; [1]) | MIC, S. aureus, MHB+ (S. aureus) | MIC (S. aureus) | MIC (E. coli; [2]) | other results
1 | CCC[C@@H]1C[C@@H](C(=O)N[C@@H]([C@H]2O[C@H](SC)[C@H](O)[C@@H](O)[C@H]2O)[C@H](C)Cl)N(C)C1 [Clindamycin] | 128 μg of antimicrobial agent/mL of buffer | 128 µg/mL | 0.12 μg of antimicrobial agent/mL of buffer | 0.25 µg/mL | – | –
2 | Cc1onc(-c2ccccc2Cl)c1C(=O)N[C@@H]1C(=O)N2[C@@H]1SC(C)(C)[C@@H]2C(=O)O [Cloxacillin] | – | – | 0.5 | 0.031 µg/mL | 256 µg/mL | –
3 | N=C(N)c1ccc(OCCCOc2ccc(C(=N)N)cc2Br)c(Br)c1.O=S(=O)(O)CCO.O=S(=O)(O)CCO [Dibrompropamidine diisetionate] | – | – | – | – | – | MIC, E. coli, MHB (E. coli; [3]): 64 μg of antimicrobial agent/mL of buffer; MIC, E. coli, MHB+ (E. coli; [4]): 16 μg of antimicrobial agent/mL of buffer; Fold, E. coli (E. coli; antiseptic agents): 4; MIC, S. aureus, MHB (S. aureus; [3]): 4 μg of antimicrobial agent/mL of buffer; MIC, S. aureus, MHB+ (S. aureus; [4]): 1 μg of antimicrobial agent/mL of buffer; Fold, S. aureus (S. aureus; antiseptic agents): 4
4 | CC[C@H]1OC(=O)[C@H](C)[C@@H](O[C@H]2C[C@@](C)(OC)[C@@H](O)[C@H](C)O2)[C@H](C)[C@@H](O[C@@H]2O[C@H](C)C[C@H](N(C)C)[C@H]2O)[C@](C)(O)C[C@@H](C)[C@@H]2N[C@@H](COCCOC)O[C@H]([C@H]2C)[C@]1(C)O [Dirithromycin] | – | – | 0.5 | 4 µg/mL | 128 µg/mL | MIC (E. coli; E. coli, no salt, pH adjusted to 7.4, read-out: MIC of dirithromycin, control): 128 µg/mL
5 | C[C@H]1c2cccc(O)c2C(=O)C2=C(O)[C@]3(O)C(=O)C(C(N)=O)=C(O)[C@@H](N(C)C)[C@@H]3[C@@H](O)[C@@H]21 [Doxycycline] | – | – | 2 | 0.125 µg/mL | 1 µg/mL | –
6 | CCn1cc(C(=O)O)c(=O)c2cc(F)c(N3CCNCC3)nc21 [Enoxacin] | – | – | 2 | 1 µg/mL | 0.25 µg/mL | –
7 | O=CN(O)CCCP(=O)(O)O [Fosmidomycin] | – | – | >64 | > 64 µg/mL | 16 µg/mL | –
8 | CC(=O)O[C@H]1C[C@@]2(C)[C@@H](C[C@@H](O)[C@H]3[C@@]4(C)CC[C@@H](O)[C@@H](C)[C@@H]4CC[C@@]32C)/C1=C(\CCC=C(C)C)C(=O)O [Fusidic acid] | >128 μg of antimicrobial agent/mL of buffer | > 128 µg/mL | 2 μg of antimicrobial agent/mL of buffer | 0.5 µg/mL | – | –
9 | COc1c(N2CCNC(C)C2)c(F)cc2c(=O)c(C(=O)O)cn(C3CC3)c12 (stereo not shown) [Gatifloxacin] | 4 μg of antimicrobial agent/mL of buffer | 16 µg/mL | 8 μg of antimicrobial agent/mL of buffer | 4 µg/mL | – | –
10 | CCCCCCCCCCCCCCCC[N+](C)(C)C.[Br-] [Hexadecyltrimethylammonium bromide] | 8 μg of antimicrobial agent/mL of buffer | – | 0.25 μg of antimicrobial agent/mL of buffer | – | – | MIC, E. coli, MHB (E. coli): 32 μg of antimicrobial agent/mL of buffer; MIC, S. aureus, MHB (S. aureus): 0.5 μg of antimicrobial agent/mL of buffer
11 | CN[C@H]1C[C@@H](N)[C@H](O)[C@@H](O[C@@H]2O[C@H](CO)[C@H](O)[C@@H]3OC4(O[C@H]23)O[C@H]([C@@H](N)CO)[C@H](O)[C@H](O)[C@H]4O)[C@@H]1O (stereo partly shown) [Hygromycin B] | 16 μg of antimicrobial agent/mL of buffer | – | – | – | – | MIC, E. coli, MHB− (E. coli; [5]): 32 μg of antimicrobial agent/mL of buffer; Fold, E. coli (E. coli; [6]): 2; MIC, S. aureus, MHB− (S. aureus; [5]): >128 μg of antimicrobial agent/mL of buffer; MIC, S. aureus, MHB+ (S. aureus; antibiotic agents, MHB in the presence of 25 mM sodium bicarbonate): 64 μg of antimicrobial agent/mL of buffer; Fold, S. aureus (S. aureus; [6]): 2
12 | NC[C@H]1O[C@H](O[C@H]2[C@H](O)[C@@H](O[C@H]3O[C@H](CO)[C@@H](O)[C@H](N)[C@H]3O)[C@H](N)C[C@@H]2N)[C@H](O)[C@@H](O)[C@@H]1O [Kanamycin] | – | – | 4 | 8 µg/mL | 4 µg/mL | –
13 | C[C@H]1COc2c(N3CCN(C)CC3)c(F)cc3c(=O)c(C(=O)O)cn1c23 [Levofloxacin] | – | – | 1 | 0.5 µg/mL | 0.0313 µg/mL | –
14 | CCC[C@@H]1C[C@@H](C(=O)N[C@@H]([C@H]2O[C@H](SC)[C@H](O)[C@@H](O)[C@H]2O)[C@@H](C)O)N(C)C1 [Lincomycin] | 32 μg of antimicrobial agent/mL of buffer | > 128 µg/mL | 0.0625 μg of antimicrobial agent/mL of buffer | 0.25 µg/mL | – | –
15 | CC(=O)NC[C@H]1CN(c2ccc(N3CCOCC3)c(F)c2)C(=O)O1 [Linezolid] | – | – | 0.625 | 0.625 µg/mL | 256 µg/mL | effect of 25 mM sodium bicarbonate on antibacterial activity (E. coli): remained largely unchanged; effect of 25 mM sodium bicarbonate on antibacterial activity (S. aureus; S. aureus, result in words): remained largely unchanged
16 | CCn1cc(C(=O)O)c(=O)c2cc(F)c(N3CCNC(C)C3)c(F)c21 (stereo not shown) [Lomefloxacin] | 0.125 μg of antimicrobial agent/mL of buffer | 0.5 µg/mL | 8 μg of antimicrobial agent/mL of buffer | 4 µg/mL | – | –
17 | C/C(=C\C(=O)OCCCCCCCCC(=O)O)C[C@@H]1OC[C@H](C[C@@H]2O[C@H]2[C@@H](C)[C@H](C)O)[C@@H](O)[C@H]1O [Mupirocin] | 128 μg of antimicrobial agent/mL of buffer | 128 µg/mL | 2 μg of antimicrobial agent/mL of buffer | 0.5 µg/mL | – | –
18 | CC1CCc2c(N3CCC(O)CC3)c(F)cc3c(=O)c(C(=O)O)cn1c23 (stereo not shown) [Nadifloxacin] | 32 μg of antimicrobial agent/mL of buffer | 8 µg/mL | 0.5 μg of antimicrobial agent/mL of buffer | 0.12 µg/mL | – | –
19 | CCOc1ccc2ccccc2c1C(=O)N[C@@H]1C(=O)N2[C@@H]1SC(C)(C)[C@@H]2C(=O)O [Nafcillin] | 32 μg of antimicrobial agent/mL of buffer | 16 µg/mL | 1 μg of antimicrobial agent/mL of buffer | 0.25 µg/mL | – | –
20 | CCn1cc(C(=O)O)c(=O)c2ccc(C)nc21 [Nalidixic acid] | – | – | 32 | > 8 µg/mL | 2 µg/mL | effect of 25 mM sodium bicarbonate on antibacterial activity (E. coli): suppressed
21 | CCn1cc(C(=O)O)c(=O)c2cc(F)c(N3CCNCC3)cc21 [Norfloxacin] | – | – | 1 | 0.5 µg/mL | 0.125 µg/mL | –
22 | Cc1onc(-c2ccccc2)c1C(=O)N[C@@H]1C(=O)N2[C@@H]1SC(C)(C)[C@@H]2C(=O)O [Oxacillin] | – | – | 1 | 0.0625 µg/mL | 256 µg/mL | –
